The test system of series [1] is NCI/ADR-RES (P-gp over-expressing resistant line of OVCAR-8). The series can be described thus: Cytotoxicity (SRB) assay, NCI/ADR-RES. The series is classed as cell-based, human.
Series [2] concerns melanoma and prostate cancer cell lines. In words: Antiproliferative activity summarised over the cell line panel (range or average). Type of series: cell-based. To be noted: read-out: IC50 (range over tested cell lines).
The subject of series [3] is PC-3 human prostate cancer cell line. The series can be described thus: cells. The settings on record: Homo sapiens. From the text: (§1) Cells were stained with SRB solution.
The test system of a further series is MES-SA/DX5 cells. The series can be described thus: Growth inhibition (SRB) assay, MES-SA/Dx5. Type of series: cell-based. The settings on record: ratio of IC50 MES-SA/DX5 to MES-SA.
A further series deals with WM-164 melanoma cells. The series can be described thus: Microtubule imaging (immunofluorescence). The settings on record: WM-164 cells, 18 h. The series is classed as cell-based, human. From the text:
Primary antibody for tubulin and fluorescence-labeled secondary antibody were subsequently added to the cells. Cell nuclei were stained by DAPI. Whole Cell Stain Green was also applied to all cells. All images were acquired with an Olympus IX71 inverted fluorescence microscope (Olympus Corp., Tokyo, Japan) with overlays from separate images of tubulin (red), nuclei (blue), and whole cells (green).

The subject of another series is HEK293-pcDNA3.1 cells. In words: Cytotoxicity assay, HEK293-pcDNA3.1 (parental line of the MRP/BCRP sublines). To be noted: Table 14B; parental cell line; read-out: IC50 ± SEM, HEK293-pcDNA3.1. Type of series: cell-based.
For series [4], the system named is OVCAR-8 human ovarian cell line. In words: Cytotoxicity (SRB) assay, OVCAR-8. Type of series: cell-based. To be noted: Table 14B, parental cell line, read-out: IC50 ± SEM, OVCAR-8.
For series [5], the system named is A375MA2 melanoma cell line. In words: Cytotoxicity assay, A375MA2. Type of series: cell-based. To be noted: Table 14B, n = 3; read-out: IC50 ± SEM, A375MA2.
Series [6] deals with MDA-MB-435/LCCMDR1 multidrug-resistant melanoma cells. The series can be described thus: Cytotoxicity (SRB) assay, MDA-MB-435/LCCMDR1. The series is classed as cell-based. The settings on record: for P-gp substrate / multidrug resistance in words: MDR melanoma line vs sensitive parent line; for IC50: Homo sapiens.
The test system of another series is B16-F1 melanoma tumors. In words: In vivo B16-F1 melanoma allograft. Further details: species or system mouse. How it is done: Female C57/BL mice, age 4-6 weeks, were purchased from Harlan Laboratories (Harlan Laboratories Inc., Indianapolis, Ind.). The animal housing met the Association for Assessment and Accreditation and Laboratory Animal Care specifications. All of the procedures were conducted in accordance with guidelines of our Institutional Animal Care and Use Committee.
Tumor volume was expressed in cubic millimeters.

For series [7], the system named is A375 human melanoma xenograft. The series can be described thus: In vivo A375 human melanoma xenograft. The settings on record: SHO mice, 31 days.
The subject of series [8] is PPC-1 human prostate cancer cell line. In words: Cytotoxicity (SRB) assay, PPC-1. The series is classed as cell-based. To be noted: Homo sapiens.
Source text: as §1

For series [9], the system named is DU 145 human prostate cancer cell line. In words: Cytotoxicity (SRB) assay, DU 145. The settings on record: Homo sapiens. The series is classed as cell-based.
Source text: as §1

In the next series the test system is DU-145/TXR cells. In words: Growth inhibition, DU-145/TXR. The series is classed as cell-based. The settings on record: Homo sapiens.
In series [10] the test system is A375 human melanoma cell line. The series can be described thus: Cytotoxicity (SRB) assay, A375. Type of series: cell-based. To be noted: Homo sapiens, A-375, Table 14D; read-out: IC50 ± SEM, A375 (converted).
For series [11], the system named is MDA-MB-435 parental nonresistant melanoma cells. The series can be described thus: Cytotoxicity (SRB) assay, MDA-MB-435. The series is classed as cell-based. To be noted: Homo sapiens.
For series [12], the system named is LNCaP human prostate cancer cell line. The series can be described thus: Cytotoxicity (SRB) assay, LNCaP. The series is classed as cell-based. To be noted: Homo sapiens, LNCaP.
Source text: as §1

The test system of series [13] is PC-3_TxR paclitaxel-resistant prostate cancer cells (P-gp over-expressing). The series can be described thus: cells. To be noted: Homo sapiens, PC3-TxR.
For series [14], the system named is confluent HUVEC monolayers. The series can be described thus: Endothelial monolayer permeability assay. To be noted: FITC-dextran leakage, 1, 2, 4 h.
The test system of a further series is PC-3_TxR xenograft. The series can be described thus: In vivo PC-3/TxR xenograft. To be noted: for tumor growth inhibition (TGI): PC-3/TxR tumors.
The mark [15] stands for this setting: read-out: IC50 PC-3, SRB assay, prostate cancer PC-3.
Setting [16] is: PPC-1, Table 12, read-out: IC50 ± SEM, PPC-1 (converted).
Where [17] appears, read: DU-145, Table 12, read-out: IC50 ± SEM, Du 145.
Setting [18] is: Table 14D, read-out: IC50 ± SEM, MDA-MB-435/LCC-6MDR1 (converted).
Setting [19] is: Table 14D, read-out: IC50 ± SEM, MDA-MB-435 (converted).
Setting [20] is: read-out: IC50 ± SEM, PC-3, Table 12.
[21] abbreviates: Table 12, read-out: IC50 ± SEM, LNCaP (converted).
Where [22] appears, read: PPC-1, Table 13A, read-out: inhibitory effects, PPC1.
[23] abbreviates: DU-145, Table 13A, read-out: inhibitory effects, DU145.
[24] abbreviates: Table 13A, read-out: inhibitory effects, LNCaP.
Setting [25] is: DU-145, Table 13A, read-out: inhibitory effects, DU-145/TXR.
Where [26] appears, read: read-out: inhibitory effects, PC3, Table 13A.
The mark [27] stands for this setting: read-out: inhibitory effects, PC3/TXR.

Like-named read-outs stand apart in the source and are kept apart here.

In the case of `COc1cc(C(=NC#N)c2csc(-c3ccccc3)n2)cc(OC)c1OC` [2j, N-((2-phenylthiazol-4-yl)(3,4,5-trimethoxyphenyl)methylene)cyanamide], the Resistance factor in series [1] (NCI/ADR-RES relative to OVCAR-8) worked out at 0.4. The values for the IC50 in [2] and in [3] (setting [15]) were 20 to 60 nM and 27 ± 1 nM, respectively.
`Fc1ccc(-c2nccc3ccc(-c4ccc5[nH]ccc5c4)cc23)cc1` [6c, 1-(4-Fluoro-phenyl)-7-(H-indol-5-yl)-isoquinoline]: the Resistance factor in the series with MES-SA/DX5 cells was determined as 1.7.
For the molecule `COc1ccc(-c2nc(C(=O)c3ccc(F)cc3)c[nH]2)cc1` [12cb, (4-fluorophenyl)(2-(4-methoxyphenyl)-1H-imidazol-4-yl)methanone], the “effect on microtubules in words” value with WM-164 melanoma cells is listed as “microtubule fragmentation”. Moreover, the IC50 was determined as 12 ± 2 nM in the series with HEK293-pcDNA3.1 cells, 25 ± 2 nM in series [4] and 44 ± 5 nM in series [5].
With `O=C(c1ccc(F)cc1)c1c[nH]c(-c2ccc(Cl)cc2)n1` [12fb, (2-(4-chlorophenyl)-1H-imidazol-4-yl)(4-fluorophenyl)methanone], the IC50 in series [1] (Homo sapiens, NCI/ADR-RES, Table 14B, MDR1 overexpressed, read-out: IC50 ± SEM, NCI/ADR-RES) is 20 ± 6 nM; with HEK293-pcDNA3.1 cells it was 54 nM; in series [4] it was 45 ± 2 nM; in [5], 55 ± 4 nM. In addition, the “P-gp substrate / multidrug resistance in words” value in [6] is recorded as “not substrates for P-gp”. Moreover, the “tumor growth inhibition (TGI value)” value in the series on B16-F1 melanoma tumors (C57BL/6 mice, 15 mg/kg, 13 days) is on record as 32%; with B16-F1 melanoma tumors (C57BL/6 mice, 45 mg/kg, 13 days) it was 82%. Also, in series [7], the well tolerated dose was 25 mg/kg.
Take `CCc1ccc(-c2nc(C(=O)c3cc(OC)c(OC)c(OC)c3)c[nH]2)cc1` [12q, (2-(4-ethylphenyl)-1H-imidazol-4-yl)(3,4,5-trimethoxyphenyl)methanone]: the IC50 in [8] (setting [16]) was 15 nM; in series [9] (setting [17]) it was 25 nM; in series [6] (setting [18]), 27 ± 3 nM; in the series with DU-145/TXR cells (Table 12, in parentheses in the Du 145 column, read-out: IC50, DU-145/TXR), 20 nM; in series [10] it was 1.4 nM; in series [11] (setting [19]) it was 107 ± 5 nM. For the same molecule, in series [3] (setting [20]), the IC50 was 13 nM.
As for `COc1cc(C(=O)c2c[nH]c(-c3ccc(C(C)C)cc3)n2)cc(OC)c1OC` [12v, (2-(4-isopropylphenyl)-1H-imidazol-4-yl)(3,4,5-trimethoxyphenyl)methanone], the IC50 in series [8] (setting [16]) is 173 nM; in series [9] (setting [17]) it was 482 nM; in series [6] (setting [18]) it was 250 nM; in series [12] (setting [21]) it was 171 nM; in series [11] (setting [19]) it was 312 nM; in series [3] (setting [20]), 136 nM.
For the molecule `COc1cc(C(=O)c2c[nH]c(-c3ccc(C(C)(C)C)cc3)n2)cc(OC)c1OC` [12w, (2-(4-tert-butylphenyl)-1H-imidazol-4-yl)(3,4,5-trimethoxyphenyl)methanone], the IC50 was 294 nM in series [8] (setting [16]); 1700 nM in series [9] (setting [17]); 3070 nM in [6] (setting [18]); 423 nM in series [12] (setting [21]); 3690 nM in [11] (setting [19]); 436 nM in [3] (setting [20]).
For the molecule `COc1cc(C(=O)c2nc(-c3ccccc3)c[nH]2)cc(OC)c1OC` [70a, (4-Phenyl-1H-imidazol-2-yl)(3,4,5-trimethoxyphenyl)methanone and (5-phenyl-1H-imidazol-2-yl)(3,4,5-trimethoxyphenyl)methanone], the IC50 was 13 nM in series [8] (setting [22]); 21.5 nM in series [9] (setting [23]); 43 nM in series [6] (setting [18]); 6 nM in [12] (setting [24]); 22.9 nM in the series on DU-145/TXR cells (setting [25]); 79 nM in series [11] (setting [19]). In addition, the IC50 in series [3] (setting [26]) was 14 nM.
In the case of `COc1cc(C(=O)c2nc(-c3ccccc3)cn2C)cc(OC)c1OC` [70m, (1-Methyl-4-phenyl-1H-imidazol-2-yl)(3,4,5-trimethoxyphenyl)methanone], the IC50 was determined as 13 nM in [8] (setting [22]); 26 nM in series [9] (setting [23]); 27 nM in the series on DU-145/TXR cells (setting [25]); 7.5 nM in series [13] (setting [27]); 16 nM in [3] (setting [26]).
Take `CCn1cc(-c2ccccc2)nc1C(=O)c1cc(OC)c(OC)c(OC)c1` [70n, (1-Ethyl-4-phenyl-1H-imidazol-2-yl)(3,4,5-trimethoxyphenyl)methanone]: the IC50 was 66 nM in series [9] (setting [23]); 29 nM in [12] (setting [24]); 66 nM in the series on DU-145/TXR cells (setting [25]); 20 nM in series [13] (setting [27]); 25 nM in series [3] (setting [26]).
Turning to `COc1cc(Cc2nc(-c3ccccc3)c(-c3ccccc3)[nH]2)cc(OC)c1OC` [102 e, 4,5-Diphenyl-2-(3,4,5-trimethoxybenzyl)-1H-imidazole], the IC50 in series [6] (Table 14C, melanoma cells, read-out: IC50 ± SEM MDA-MB-435/LCC-6MDR1) is above 50000 nM; in series [11] (Table 14C, melanoma cells, read-out: IC50 ± SEM MDA-MB-435), above 50000 nM.
Regarding `COc1ccc(S(=O)(=O)Nc2cccnc2Nc2ccc(O)cc2)cc1` [ABT-751, reference compound], the “effect on microtubules in words” value in the series with WM-164 melanoma cells is given as “microtubule fragmentation”. The IC50 in the series with HEK293-pcDNA3.1 cells was 645 ± 153 nM; in [6] (Table 14B, MDR1 overexpressed, read-out: IC50 ± SEM, MDA-MB-435/LCC6MDR1), 577 ± 31 nM. In addition, the “P-gp substrate / multidrug resistance in words” value in [6] is reported as “not susceptible to MDR1, MRP, or BCRP”.
Turning to `COc1ccc(/C=C\c2cc(OC)c(OC)c(OC)c2)cc1O` [CA4, Combretastatin A-4], in series [14], the “permeability of endothelial cell monolayer in words” value is “increased permeability”.
Turning to `CN(C)/N=N/c1[nH]cnc1C(N)=O` [DTIC, 5-(3,3,-dimethyl-1-triazenyl)-imidazole-4-carboxamide, reference compound], the tumor volume reduction with B16-F1 melanoma tumors (C57/BL mice, 60 mg/kg i.p. daily, 14 days) came out at 51%. Besides, in the series on B16-F1 melanoma tumors (C57BL/6 mice, 60 mg/kg, 13 days), the “tumor growth inhibition (TGI)” value is recorded as 51%.
As to `CC(=O)O[C@@]12CO[C@@H]1C[C@H](O)[C@@]1(C)C(=O)[C@H](O)C3=C(C)[C@@H](OC(=O)[C@H](O)[C@@H](NC(=O)OC(C)(C)C)c4ccccc4)C[C@@](O)([C@@H](OC(=O)c4ccccc4)[C@H]21)C3(C)C` [docetaxel, reference compound], the “tumor growth inhibition (TGI)” value in the series with PC-3_TxR xenograft (i.v. 10 mg/kg on day 1 and 9) is listed as 14%; with PC-3_TxR xenograft (i.v. 20 mg/kg on day 1 and 9), 56%. In addition, the “Tumor size End” value in the series on PC-3_TxR xenograft (PC-3/TxR xenograft, IV 10 mpk, day 1 and 9, day 19, […]) was determined as 1774 ± 183 mm^2. In addition, the IC50 in series [13] (read-out: IC50 PC-3/TxR) amounted to 17.7 ± 0.7 nM; in [3] (read-out: IC50, PC-3, Table 7), 6.3 ± 0.4 nM; in [3] (setting [15]) it was 1.2 ± 0.1 nM.

For the origin of these results see patent US11465987B2, “Compounds for treatment of cancer” (ONCTERNAL THERAPEUTICS, INC., priority 2012, dated 2022).
